The values below come from PubChem BioAssay (NCI).

Among the test systems are UACC-62 melanoma; ACHN renal; IGROV1 ovarian; HCT-116 colon; NCI-H23 lung; NCI-H460 lung; SK-MEL-2 melanoma; CCRF-CEM leukemia; SF-268 CNS; NCI-H522 lung.
Common to all, as to test: growth of human tumour cells (NCI), 48 h

Values joined by “and” are separate entries in the source; they are usually repeats but may differ in a detail not shown here. Equal values may be shown once.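 1) Cells in 96-well plates. 2) Compound, 48 h, 5 concentrations. 3) Linear interpolation between surrounding doses. 4) Unreached endpoint = highest concentration. At the GI50, growth is halved. TGI denotes the concentration required for complete inhibition of growth.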

As for `C=C1C(=O)C2(C)OC2(C)C1C(=O)O` (stereo not given), the TGI in the test on UACC-62 melanoma, with ACHN renal, with IGROV1 ovarian, with HCT-116 colon, in the test with NCI-H23 lung and in the test with NCI-H460 lung was > 100 µM throughout. Further, the TGI in the test with SK-MEL-2 melanoma, with CCRF-CEM leukemia, with SF-268 CNS and in the test with NCI-H522 lung was > 100 µM throughout.

Turning to `O=C(CSc1ncc(-c2ccccc2)n1-c1ccccc1)Nc1ccc(-c2nc3ccccc3s2)cc1`, the GI50 is 22.6 µM in the test on UACC-62 melanoma; 14.5 µM with ACHN renal; 2.72 µM in the test with IGROV1 ovarian; 3.68 µM in the test with HCT-116 colon; 20.4 µM in the test on NCI-H23 lung; 3.61 µM in the test on NCI-H460 lung. For the same compound, the GI50 with SK-MEL-2 melanoma is 12 µM; in the test on CCRF-CEM leukemia, > 100 µM; with SF-268 CNS, 3.5 µM; in the test on NCI-H522 lung, 8.11 µM. The TGI in the test with UACC-62 melanoma, in the test with ACHN renal, in the test with IGROV1 ovarian, in the test with HCT-116 colon, in the test on NCI-H23 lung and in the test on NCI-H460 lung was > 100 µM in each case. Besides, the TGI was 73.2 µM in the test on SK-MEL-2 melanoma, > 100 µM in the test on CCRF-CEM leukemia, > 100 µM in the test with SF-268 CNS and > 100 µM with NCI-H522 lung.

`CC(=O)C(C=O)C(C)=O.CC(=O)CC(C)=O.CC(=O)CC(C)=O.[Ru]`: the GI50 is 0.589 µM in the test with UACC-62 melanoma; 21 µM with ACHN renal; 20.4 µM in the test on IGROV1 ovarian; 21.8 µM with HCT-116 colon; 12.1 µM in the test on NCI-H23 lung; 28.5 µM with NCI-H460 lung. The GI50 is 24.3 µM with SK-MEL-2 melanoma, 5.62 µM with CCRF-CEM leukemia, 34.8 µM in the test on SF-268 CNS and 16.4 µM in the test with NCI-H522 lung. Moreover, the TGI in the test on UACC-62 melanoma is 19.1 µM; with ACHN renal it was > 100 µM; in the test on IGROV1 ovarian, 73.3 µM; with HCT-116 colon, > 100 µM; in the test on NCI-H23 lung, 44.3 µM; in the test with NCI-H460 lung it was > 100 µM. The TGI in the test with SK-MEL-2 melanoma was > 100 µM; with CCRF-CEM leukemia, 21.8 µM; in the test on SF-268 CNS, > 100 µM; in the test on NCI-H522 lung it was 55.1 µM.

For the compound `O=C1C(Br)=CC2(C=C1Br)CCNc1c(O)c3c4c(c12)=NCCC=4C=N3`, the TGI is 0.233 µM in the test on UACC-62 melanoma; 0.307 µM with ACHN renal; 0.42 µM in the test with IGROV1 ovarian; 0.116 µM in the test on HCT-116 colon; 0.287 µM in the test on NCI-H23 lung; 1.64 µM in the test on NCI-H460 lung. Further, the TGI in the test on SK-MEL-2 melanoma is 0.428 µM; with CCRF-CEM leukemia, 0.0734 µM; in the test with SF-268 CNS, 1.18 µM; with NCI-H522 lung it was 0.0542 µM.

Regarding `COc1cc2c(cc1O)C1CC(CC3CCCCN31)OC(=O)/C=C\c1ccc(O)c-2c1` (stereo not given), the TGI was 45.2 µM in the test with UACC-62 melanoma; > 100 µM in the test with ACHN renal; > 100 µM with IGROV1 ovarian; > 100 µM with HCT-116 colon; > 100 µM in the test on NCI-H23 lung; > 100 µM with NCI-H460 lung. Also, the TGI with SK-MEL-2 melanoma came to 72.1 µM; in the test on CCRF-CEM leukemia, 90.5 µM; in the test on SF-268 CNS, 72.3 µM; with NCI-H522 lung, 65 µM.

For the compound `COc1cccc(/C=C\c2ccnc3ccccc23)c1`, the TGI in the test with UACC-62 melanoma, in the test with ACHN renal, in the test on IGROV1 ovarian, with HCT-116 colon, in the test on NCI-H23 lung and with NCI-H460 lung was > 10 µM in each case. For the same compound, the TGI in the test with SK-MEL-2 melanoma, with CCRF-CEM leukemia, with SF-268 CNS and in the test on NCI-H522 lung was > 10 µM in each case.

On to `CCc1ccc([O-])c(C=NCCCN(C)CCCN=Cc2cc(C)ccc2[O-])c1.[Co+3].[N-]=[N+]=[N-]`, for which the GI50 is 50 µg/mL and 78.2 µg/mL with UACC-62 melanoma; 50 µg/mL with ACHN renal; 20.5 µg/mL and 24.6 µg/mL in the test on IGROV1 ovarian; 50 µg/mL and 56.2 µg/mL with HCT-116 colon; 50 µg/mL and 33.8 µg/mL in the test on NCI-H23 lung; 50 µg/mL and > 150 µg/mL in the test on NCI-H460 lung. For the same compound, the GI50 with SK-MEL-2 melanoma was 50 µg/mL and 44.7 µg/mL; in the test with CCRF-CEM leukemia, > 150 µg/mL; in the test on SF-268 CNS, 21.9 µg/mL and 53.3 µg/mL; in the test on NCI-H522 lung, 50 µg/mL and > 150 µg/mL. In addition, the TGI is 50 µg/mL and > 150 µg/mL with UACC-62 melanoma; 50 µg/mL in the test with ACHN renal; 50 µg/mL and 55.5 µg/mL in the test on IGROV1 ovarian; 50 µg/mL and > 150 µg/mL with HCT-116 colon; 50 µg/mL and 129 µg/mL with NCI-H23 lung; 50 µg/mL and > 150 µg/mL in the test on NCI-H460 lung. Besides, the TGI in the test on SK-MEL-2 melanoma was 50 µg/mL and 135 µg/mL; in the test on CCRF-CEM leukemia, > 150 µg/mL; in the test with SF-268 CNS, 50 µg/mL and > 150 µg/mL; in the test with NCI-H522 lung it was 50 µg/mL and > 150 µg/mL.

On to `Cc1[nH]n(-c2cccc(Cl)c2)c(=O)c1/C=C1\C=c2ccccc2=CC1=O`, for which the GI50 was 39.8 µM in the test with UACC-62 melanoma; 17 µM in the test on ACHN renal; 27.1 µM with IGROV1 ovarian; > 100 µM in the test with HCT-116 colon; 48 µM with NCI-H23 lung; > 100 µM in the test on NCI-H460 lung. In addition, the GI50 is 21.8 µM in the test on SK-MEL-2 melanoma, 97.5 µM in the test on CCRF-CEM leukemia, 97.1 µM in the test with SF-268 CNS and > 100 µM in the test with NCI-H522 lung. In addition, the TGI in the test on UACC-62 melanoma, in the test on ACHN renal, in the test with IGROV1 ovarian, in the test on HCT-116 colon, in the test on NCI-H23 lung and in the test on NCI-H460 lung was > 100 µM throughout. Further, the TGI is 70.2 µM with SK-MEL-2 melanoma, > 100 µM with CCRF-CEM leukemia, > 100 µM in the test with SF-268 CNS and > 100 µM with NCI-H522 lung.

Turning to `Nc1ccc(C(=O)Nc2ccccc2N)cc1`, the TGI in the test with UACC-62 melanoma is 39.7 µM; in the test on ACHN renal it was > 100 µM; in the test with IGROV1 ovarian it was > 100 µM; with HCT-116 colon, > 90.7 µM; in the test with NCI-H23 lung, > 100 µM; in the test on NCI-H460 lung it was > 100 µM. In addition, the TGI is > 86.1 µM in the test with SK-MEL-2 melanoma, > 82 µM in the test on CCRF-CEM leukemia, > 100 µM in the test on SF-268 CNS and 47.2 µM with NCI-H522 lung.

For `CC12CC(=O)C3C(CCC4=CC(=O)CCC43C)C1CC=C2CC(=O)O` (stereo not given), the TGI in the test on UACC-62 melanoma, in the test on ACHN renal, in the test with IGROV1 ovarian, in the test with HCT-116 colon, in the test on NCI-H23 lung and with NCI-H460 lung was > 100 µM in each case. In addition, the TGI in the test on SK-MEL-2 melanoma, with CCRF-CEM leukemia, in the test with SF-268 CNS and in the test on NCI-H522 lung was > 100 µM each time.
